{"source": "patent US9302988B2", "about": "“Fluoromethyl-substituted pyrrole carboxamides” (GRÜNENTHAL GMBH, priority 2012, dated 2016)"}
{"target": "T1, Human CaV2.2 channels (Homo sapiens, UniProt Q00975)", "T1 construct": "expressed in transfected cells", "T1 sequence (Q00975 whole entry)": "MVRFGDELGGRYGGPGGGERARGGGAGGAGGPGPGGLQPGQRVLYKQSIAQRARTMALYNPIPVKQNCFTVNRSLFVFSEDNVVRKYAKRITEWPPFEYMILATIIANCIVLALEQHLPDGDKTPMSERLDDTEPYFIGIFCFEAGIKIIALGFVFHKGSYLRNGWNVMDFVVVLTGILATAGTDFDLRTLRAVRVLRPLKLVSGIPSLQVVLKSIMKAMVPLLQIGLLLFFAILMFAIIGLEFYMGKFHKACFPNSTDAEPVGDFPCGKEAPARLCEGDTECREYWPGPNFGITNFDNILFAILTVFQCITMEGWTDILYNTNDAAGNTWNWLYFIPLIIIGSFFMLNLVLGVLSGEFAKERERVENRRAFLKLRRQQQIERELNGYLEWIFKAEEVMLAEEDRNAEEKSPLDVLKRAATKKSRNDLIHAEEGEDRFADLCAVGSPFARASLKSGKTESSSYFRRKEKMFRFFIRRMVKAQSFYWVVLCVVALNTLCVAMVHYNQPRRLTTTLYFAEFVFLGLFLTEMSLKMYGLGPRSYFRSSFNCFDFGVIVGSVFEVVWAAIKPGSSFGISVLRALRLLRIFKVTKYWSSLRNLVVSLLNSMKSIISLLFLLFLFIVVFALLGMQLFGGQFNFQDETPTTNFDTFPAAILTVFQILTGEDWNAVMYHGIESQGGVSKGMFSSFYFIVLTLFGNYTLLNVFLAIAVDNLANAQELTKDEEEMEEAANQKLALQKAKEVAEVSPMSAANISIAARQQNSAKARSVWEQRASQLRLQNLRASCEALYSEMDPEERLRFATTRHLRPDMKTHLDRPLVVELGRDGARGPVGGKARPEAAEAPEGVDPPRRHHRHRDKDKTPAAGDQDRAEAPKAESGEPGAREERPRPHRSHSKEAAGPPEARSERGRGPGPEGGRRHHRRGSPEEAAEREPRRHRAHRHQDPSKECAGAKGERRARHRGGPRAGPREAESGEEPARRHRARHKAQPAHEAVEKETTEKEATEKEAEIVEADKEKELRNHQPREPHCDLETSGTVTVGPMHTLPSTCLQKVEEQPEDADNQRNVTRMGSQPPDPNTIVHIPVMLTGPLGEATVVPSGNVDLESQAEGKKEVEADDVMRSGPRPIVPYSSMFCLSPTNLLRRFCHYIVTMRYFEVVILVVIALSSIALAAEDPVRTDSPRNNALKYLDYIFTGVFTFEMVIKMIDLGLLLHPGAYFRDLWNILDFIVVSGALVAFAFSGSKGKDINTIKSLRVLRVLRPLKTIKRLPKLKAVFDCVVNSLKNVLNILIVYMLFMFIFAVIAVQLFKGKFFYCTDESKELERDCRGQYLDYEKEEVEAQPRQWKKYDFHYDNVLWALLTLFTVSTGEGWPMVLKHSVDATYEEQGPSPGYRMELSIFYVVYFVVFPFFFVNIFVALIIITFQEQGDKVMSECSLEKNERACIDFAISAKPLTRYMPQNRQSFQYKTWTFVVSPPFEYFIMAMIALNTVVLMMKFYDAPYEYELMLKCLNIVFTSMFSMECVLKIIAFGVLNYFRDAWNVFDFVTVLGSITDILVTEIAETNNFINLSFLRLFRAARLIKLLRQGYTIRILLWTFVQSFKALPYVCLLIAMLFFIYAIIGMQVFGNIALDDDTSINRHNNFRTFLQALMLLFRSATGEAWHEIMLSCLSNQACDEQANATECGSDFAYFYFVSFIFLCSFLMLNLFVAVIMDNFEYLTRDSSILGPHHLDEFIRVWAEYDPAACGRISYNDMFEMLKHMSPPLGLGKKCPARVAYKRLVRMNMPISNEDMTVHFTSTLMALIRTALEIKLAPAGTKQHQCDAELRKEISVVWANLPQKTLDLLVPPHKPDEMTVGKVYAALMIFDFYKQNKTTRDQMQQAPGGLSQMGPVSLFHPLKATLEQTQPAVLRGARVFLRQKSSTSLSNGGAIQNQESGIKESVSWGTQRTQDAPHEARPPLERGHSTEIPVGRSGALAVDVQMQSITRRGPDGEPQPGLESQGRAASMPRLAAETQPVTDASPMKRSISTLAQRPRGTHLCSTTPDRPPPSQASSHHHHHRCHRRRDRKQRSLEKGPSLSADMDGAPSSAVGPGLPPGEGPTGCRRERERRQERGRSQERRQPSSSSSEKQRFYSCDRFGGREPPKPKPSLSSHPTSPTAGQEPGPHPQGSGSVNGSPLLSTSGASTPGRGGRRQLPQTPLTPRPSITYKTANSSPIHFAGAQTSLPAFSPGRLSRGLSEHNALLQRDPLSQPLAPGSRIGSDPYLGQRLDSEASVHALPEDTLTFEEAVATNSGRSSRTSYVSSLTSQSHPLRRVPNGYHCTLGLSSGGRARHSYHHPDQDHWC", "T1 sequence (P54289 25-1103, further chain)": "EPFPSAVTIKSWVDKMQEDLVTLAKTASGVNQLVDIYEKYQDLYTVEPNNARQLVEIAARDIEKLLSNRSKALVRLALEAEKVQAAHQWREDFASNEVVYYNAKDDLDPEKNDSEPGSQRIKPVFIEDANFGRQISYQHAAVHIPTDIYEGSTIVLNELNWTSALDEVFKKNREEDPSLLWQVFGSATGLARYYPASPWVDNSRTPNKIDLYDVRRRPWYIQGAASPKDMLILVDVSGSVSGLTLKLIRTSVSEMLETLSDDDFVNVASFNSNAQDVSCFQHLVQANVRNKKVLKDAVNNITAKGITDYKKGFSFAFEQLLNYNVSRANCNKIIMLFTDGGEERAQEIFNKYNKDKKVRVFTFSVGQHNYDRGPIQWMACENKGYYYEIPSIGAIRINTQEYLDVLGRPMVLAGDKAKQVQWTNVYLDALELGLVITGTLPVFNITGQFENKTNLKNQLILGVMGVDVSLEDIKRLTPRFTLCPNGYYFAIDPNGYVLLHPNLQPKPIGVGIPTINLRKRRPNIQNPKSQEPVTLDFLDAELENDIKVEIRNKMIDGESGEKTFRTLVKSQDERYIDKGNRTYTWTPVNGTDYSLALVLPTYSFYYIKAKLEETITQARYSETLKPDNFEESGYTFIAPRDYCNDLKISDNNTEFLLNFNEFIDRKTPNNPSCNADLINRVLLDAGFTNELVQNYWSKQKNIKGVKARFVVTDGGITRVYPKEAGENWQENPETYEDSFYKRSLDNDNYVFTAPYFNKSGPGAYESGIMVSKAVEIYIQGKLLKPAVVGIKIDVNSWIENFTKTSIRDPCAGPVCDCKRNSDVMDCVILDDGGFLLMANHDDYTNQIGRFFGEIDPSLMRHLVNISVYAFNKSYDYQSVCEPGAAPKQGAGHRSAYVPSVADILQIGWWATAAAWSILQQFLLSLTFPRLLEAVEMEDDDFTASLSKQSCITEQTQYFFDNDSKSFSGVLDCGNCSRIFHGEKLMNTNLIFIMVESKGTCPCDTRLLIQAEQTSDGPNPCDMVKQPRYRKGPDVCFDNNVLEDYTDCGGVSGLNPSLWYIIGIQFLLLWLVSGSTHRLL", "T1 sequence (P54284 whole entry, further chain)": "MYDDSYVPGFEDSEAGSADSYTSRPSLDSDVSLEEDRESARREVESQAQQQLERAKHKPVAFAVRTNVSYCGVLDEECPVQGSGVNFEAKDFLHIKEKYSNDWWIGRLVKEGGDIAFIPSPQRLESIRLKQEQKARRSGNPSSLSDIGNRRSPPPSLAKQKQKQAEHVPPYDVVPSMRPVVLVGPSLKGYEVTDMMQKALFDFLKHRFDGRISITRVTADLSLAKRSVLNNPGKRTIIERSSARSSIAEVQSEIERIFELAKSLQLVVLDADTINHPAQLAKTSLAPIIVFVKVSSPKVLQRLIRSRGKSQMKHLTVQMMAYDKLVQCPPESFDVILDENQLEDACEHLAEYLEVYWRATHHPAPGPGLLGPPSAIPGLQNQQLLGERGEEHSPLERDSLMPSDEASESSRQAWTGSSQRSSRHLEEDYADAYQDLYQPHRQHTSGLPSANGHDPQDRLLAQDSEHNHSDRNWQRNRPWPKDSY", "experiment": "Fluorescent assay for CaV2.2 channels using potassium depolarization to induce channel opening (FLIPR, Fluo-4)", "format": "cell-based", "conditions": "3 μM test compound, 30 mM KCl, HEK293 cells stably expressing human CaV2.2; read-out: %-Inhib (CaV2.2) @3 μM @30 mM KCl", "method_in_brief": "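HEK293 cells stably co-expressing CaV2.2 with α2δ and β subunits plus Kir2.3 were Fluo-4 loaded, then preincubated 15 min at 25 °C with compound in 30 mM KCl buffer, pH 7.4. Depolarization was by adding buffer containing 210 mM KCl. Inhibition was taken from baseline-normalized peak fluorescence amplitude (ex 480/em 535 nm).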", "units": {"inhibition at 3 µM": "%"}}
{"compound": "Cc1c(-c2ccc(OC(F)(F)F)cc2)c(C(=O)N(C)CCS(C)(=O)=O)n(Cc2ccccc2)c1C(F)(F)F", "note": "[SC-236, 1-Benzyl-N,4-dimethyl-N-(2-methylsulfonyl-ethyl)-5-(trifluoromethyl)-3-[4-(trifluoromethyloxy)-phenyl]-1H-pyrrole-2-carboxylic acid amide]", "inhibition at 3 µM": "> 95"}
{"compound": "Cc1c(-c2ccc(OC(F)(F)F)cc2)c(C(=O)N(C)C2CCOCC2)n(Cc2ccccc2)c1C(F)(F)F", "note": "[SC-237, 1-Benzyl-N,4-dimethyl-N-tetrahydro-pyran-4-yl-5-(trifluoromethyl)-3-[4-(trifluoromethyloxy)-phenyl]-1H-pyrrole-2-carboxylic acid amide]", "inhibition at 3 µM": "75 to 95"}
{"compound": "Cc1c(-c2ccc(OC(F)(F)F)cc2)c(C(=O)N(C)C2CC2)n(Cc2ccccc2)c1C(F)(F)F", "note": "[SC-238, 1-Benzyl-N-cyclopropyl-N,4-dimethyl-5-(trifluoromethyl)-3-[4-(trifluoromethyloxy)-phenyl]-1H-pyrrole-2-carboxylic acid amide]", "inhibition at 3 µM": "40 to 75"}
{"compound": "Cc1c(-c2ccc(OC(F)(F)F)cc2)c(C(=O)N2CC(O)C2)n(Cc2ccccc2)c1C(F)(F)F", "note": "[SC-239, [1-Benzyl-4-methyl-5-(trifluoromethyl)-3-[4-(trifluoromethyloxy)-phenyl]-1H-pyrrol-2-yl]-(3-hydroxy-azetidin-1-yl)-methanone]", "inhibition at 3 µM": "75 to 95"}
{"compound": "Cc1c(-c2ccc(OC(F)(F)F)cc2)c(C(=O)N(C)CC(C)(C)C)n(Cc2ccccc2)c1C(F)(F)F", "note": "[SC-240, 1-Benzyl-N-(2,2-dimethyl-propyl)-N,4-dimethyl-5-(trifluoromethyl)-3-[4-(trifluoromethyloxy)-phenyl]-1H-pyrrole-2-carboxylic acid amide]", "inhibition at 3 µM": "30 to 40"}
{"compound": "Cc1c(-c2ccc(OC(F)(F)F)cc2)c(C(=O)N(C)C(C)(C)CO)n(Cc2ccccc2)c1C(F)(F)F", "note": "[SC-241, 1-Benzyl-N-(2-hydroxy-1,1-dimethyl-ethyl)-N,4-dimethyl-5-(trifluoromethyl)-3-[4-(trifluoromethyloxy)-phenyl]-1H-pyrrole-2-carboxylic acid amide]", "inhibition at 3 µM": "> 95"}
{"compound": "Cc1c(-c2ccc(OC(F)(F)F)cc2)c(C(=O)N2CCOC(C)(C)C2)n(Cc2ccccc2)c1C(F)(F)F", "note": "[SC-242, [1-Benzyl-4-methyl-5-(trifluoromethyl)-3-[4-(trifluoromethyloxy)-phenyl]-1H-pyrrol-2-yl]-(2,2-dimethyl-morpholin-4-yl)-methanone]", "inhibition at 3 µM": "75 to 95"}
{"compound": "Cc1c(-c2ccc(Cl)c(F)c2)c(C(=O)N(C)CC(C)(C)CO)n(Cc2ccccc2)c1C(F)(F)F", "note": "[SC-243, 1-Benzyl-3-(4-chloro-3-fluoro-phenyl)-N-(3-hydroxy-2,2-dimethyl-propyl)-N,4-dimethyl-5-(trifluoromethyl)-1H-pyrrole-2-carboxylic acid amide]", "inhibition at 3 µM": "> 95"}
{"compound": "Cc1c(-c2ccc(Cl)c(F)c2)c(C(=O)N(C)CCS(C)(=O)=O)n(Cc2ccccc2)c1C(F)(F)F", "note": "[SC-244, 1-Benzyl-3-(4-chloro-3-fluoro-phenyl)-N,4-dimethyl-N-(2-methylsulfonyl-ethyl)-5-(trifluoromethyl)-1H-pyrrole-2-carboxylic acid amide]", "inhibition at 3 µM": "75 to 95"}
{"compound": "Cc1c(-c2ccc(Cl)c(F)c2)c(C(=O)N(C)C2CCOCC2)n(Cc2ccccc2)c1C(F)(F)F", "note": "[SC-245, 1-Benzyl-3-(4-chloro-3-fluoro-phenyl)-N,4-dimethyl-N-tetrahydro-pyran-4-yl-5-(trifluoromethyl)-1H-pyrrole-2-carboxylic acid amide]", "inhibition at 3 µM": "> 95"}
{"compound": "Cc1c(-c2ccc(Cl)c(F)c2)c(C(=O)N(C)C2CC2)n(Cc2ccccc2)c1C(F)(F)F", "note": "[SC-246, 1-Benzyl-3-(4-chloro-3-fluoro-phenyl)-N-cyclopropyl-N,4-dimethyl-5-(trifluoromethyl)-1H-pyrrole-2-carboxylic acid amide]", "inhibition at 3 µM": "75 to 95"}
{"compound": "Cc1c(-c2ccc(Cl)c(F)c2)c(C(=O)N2CC(O)C2)n(Cc2ccccc2)c1C(F)(F)F", "note": "[SC-247, [1-Benzyl-3-(4-chloro-3-fluoro-phenyl)-4-methyl-5-(trifluoromethyl)-1H-pyrrol-2-yl]-(3-hydroxy-azetidin-1-yl)-methanone]", "inhibition at 3 µM": "40 to 75"}
{"compound": "Cc1c(-c2ccc(Cl)c(F)c2)c(C(=O)N(C)C(C)(C)CO)n(Cc2ccccc2)c1C(F)(F)F", "note": "[SC-248, 1-Benzyl-3-(4-chloro-3-fluoro-phenyl)-N-(2-hydroxy-1,1-dimethyl-ethyl)-N,4-dimethyl-5-(trifluoromethyl)-1H-pyrrole-2-carboxylic acid amide]", "inhibition at 3 µM": "75 to 95"}
{"compound": "Cc1c(-c2ccc(Cl)c(F)c2)c(C(=O)N2CCOC(C)(C)C2)n(Cc2ccccc2)c1C(F)(F)F", "note": "[SC-249, [1-Benzyl-3-(4-chloro-3-fluoro-phenyl)-4-methyl-5-(trifluoromethyl)-1H-pyrrol-2-yl]-(2,2-dimethyl-morpholin-4-yl)-methanone]", "inhibition at 3 µM": "75 to 95"}
{"compound": "Cc1c(-c2ccc(Cl)c(F)c2)c(C(=O)N(C)CC(C)(C)C)n(Cc2ccccc2)c1C(F)(F)F", "note": "[SC-250, 1-Benzyl-3-(4-chloro-3-fluoro-phenyl)-N-(2,2-dimethyl-propyl)-N,4-dimethyl-5-(trifluoromethyl)-1H-pyrrole-2-carboxylic acid amide]", "inhibition at 3 µM": "40 to 75"}
{"compound": "Cc1c(-c2ccc(F)c(Cl)c2)c(C(=O)N(C)CC(C)(C)CO)n(Cc2ccccc2)c1C(F)(F)F", "note": "[SC-251, 1-Benzyl-3-(3-chloro-4-fluoro-phenyl)-N-(3-hydroxy-2,2-dimethyl-propyl)-N,4-dimethyl-5-(trifluoromethyl)-1H-pyrrole-2-carboxylic acid amide]", "inhibition at 3 µM": "75 to 95"}
{"compound": "Cc1c(-c2ccc(F)c(Cl)c2)c(C(=O)N(C)CCS(C)(=O)=O)n(Cc2ccccc2)c1C(F)(F)F", "note": "[SC-252, 1-Benzyl-3-(3-chloro-4-fluoro-phenyl)-N,4-dimethyl-N-(2-methylsulfonyl-ethyl)-5-(trifluoromethyl)-1H-pyrrole-2-carboxylic acid amide]", "inhibition at 3 µM": "> 95"}
{"compound": "Cc1c(-c2ccc(F)c(Cl)c2)c(C(=O)N(C)C2CCOCC2)n(Cc2ccccc2)c1C(F)(F)F", "note": "[SC-253, 1-Benzyl-3-(3-chloro-4-fluoro-phenyl)-N,4-dimethyl-N-tetrahydro-pyran-4-yl-5-(trifluoromethyl)-1H-pyrrole-2-carboxylic acid amide]", "inhibition at 3 µM": "> 95"}
{"compound": "Cc1c(-c2ccc(F)c(Cl)c2)c(C(=O)N(C)C2CC2)n(Cc2ccccc2)c1C(F)(F)F", "note": "[SC-254, 1-Benzyl-3-(3-chloro-4-fluoro-phenyl)-N-cyclopropyl-N,4-dimethyl-5-(trifluoromethyl)-1H-pyrrole-2-carboxylic acid amide]", "inhibition at 3 µM": "75 to 95"}
{"compound": "Cc1c(-c2ccc(F)c(Cl)c2)c(C(=O)N2CC(O)C2)n(Cc2ccccc2)c1C(F)(F)F", "note": "[SC-255, [1-Benzyl-3-(3-chloro-4-fluoro-phenyl)-4-methyl-5-(trifluoromethyl)-1H-pyrrol-2-yl]-(3-hydroxy-azetidin-1-yl)-methanone]", "inhibition at 3 µM": "40 to 75"}
{"compound": "Cc1c(-c2ccc(F)c(Cl)c2)c(C(=O)N(C)CC(C)(C)C)n(Cc2ccccc2)c1C(F)(F)F", "note": "[SC-256, 1-Benzyl-3-(3-chloro-4-fluoro-phenyl)-N-(2,2-dimethyl-propyl)-N,4-dimethyl-5-(trifluoromethyl)-1H-pyrrole-2-carboxylic acid amide]", "inhibition at 3 µM": "30 to 40"}
{"compound": "Cc1c(-c2ccc(F)c(Cl)c2)c(C(=O)N(C)C(C)(C)CO)n(Cc2ccccc2)c1C(F)(F)F", "note": "[SC-257, 1-Benzyl-3-(3-chloro-4-fluoro-phenyl)-N-(2-hydroxy-1,1-dimethyl-ethyl)-N,4-dimethyl-5-(trifluoromethyl)-1H-pyrrole-2-carboxylic acid amide]", "inhibition at 3 µM": "75 to 95"}
{"compound": "Cc1c(-c2ccc(F)c(Cl)c2)c(C(=O)N2CCOC(C)(C)C2)n(Cc2ccccc2)c1C(F)(F)F", "note": "[SC-258, [1-Benzyl-3-(3-chloro-4-fluoro-phenyl)-4-methyl-5-(trifluoromethyl)-1H-pyrrol-2-yl]-(2,2-dimethyl-morpholin-4-yl)-methanone]", "inhibition at 3 µM": "75 to 95"}
{"compound": "CN(CC(C)(C)C)C(=O)c1c(-c2ccc(Cl)cc2)c(S(C)(=O)=O)c(C(F)(F)F)n1Cc1ccccc1", "note": "[SC-259, 1-Benzyl-3-(4-chlorophenyl)-N-(2,2-dimethyl-propyl)-N-methyl-4-methylsulfonyl-5-(trifluoromethyl)-1H-pyrrole-2-carboxylic acid amide]", "inhibition at 3 µM": "75 to 95"}
{"compound": "Cc1c(-c2ccc(OCC(F)(F)F)cc2)c(C(=O)N(C)CC(C)(C)C)n(Cc2ccccc2)c1C(F)(F)F", "note": "[SC-260, 1-Benzyl-N,4-dimethyl-N-neopentyl-3-(4-(2,2,2-trifluoroethoxy)phenyl)-5-(trifluoromethyl)-1H-pyrrole-2-carboxamide]", "inhibition at 3 µM": "40 to 75"}
{"compound": "CN(CC(C)(C)C)C(=O)c1c(-c2ccc(Cl)cc2)cc(C(F)(F)F)n1Cc1ccc(F)cc1", "note": "[SC-261, 3-(4-Chlorophenyl)-N-(2,2-dimethyl-propyl)-1-[(4-fluorophenyl)-methyl]-N-methyl-5-(trifluoromethyl)-1H-pyrrole-2-carboxylic acid amide]", "inhibition at 3 µM": "75 to 95"}
{"compound": "Cc1c(-c2ccc(OC(F)(F)F)cc2F)c(C(=O)N2CCOCC2)n(Cc2ccccc2)c1C(F)(F)F", "note": "[SC-262, (1-benzyl-3-(2-fluoro-4-(trifluoromethoxy)phenyl)-4-methyl-5-(trifluoromethyl)-1H-pyrrol-2-yl)(morpholino)methanone]", "inhibition at 3 µM": "75 to 95"}
{"compound": "Cc1c(-c2ccc(OCC(F)(F)F)cc2)c(C(=O)N2CCOCC2)n(Cc2ccccc2)c1C(F)(F)F", "note": "[SC-263, [1-Benzyl-4-methyl-3-[4-(2,2,2-trifluoro-ethoxy)-phenyl]-5-(trifluoromethyl)-1H-pyrrol-2-yl]-morpholin-4-yl-methanone]", "inhibition at 3 µM": "75 to 95"}
{"compound": "Cc1c(-c2ccc(C#N)cc2F)c(C(=O)N2CCOCC2)n(Cc2ccccc2)c1C(F)(F)F", "note": "[SC-264, 4-[1-Benzyl-4-methyl-2-(morpholine-4-carbonyl)-5-(trifluoromethyl)-1H-pyrrol-3-yl]-3-fluoro-benzonitrile]", "inhibition at 3 µM": "75 to 95"}
